ChEMBL document CHEMBL4270492, “Free radicals and polyphenols: The redox chemistry of neurodegenerative diseases” (Eur J Med Chem, 2017)

Assays:
[1] = Antioxidant activity assessed as singlet oxygen scavenging activity by measuring rate constant using VIS irradiation by ESR spin trapping method; type: functional
[2] = Antioxidant activity assessed as hydroxyl radical scavenging activity by measuring rate constant using UV irradiation by ESR spin trapping method; type: functional
[3] = Antioxidant activity assessed as DPPH free radical scavenging activity; type: functional
[4] = Antioxidant activity assessed as superoxide anion free radical scavenging activity by measuring rate constant using UV irradiation by ESR spin trapping method; type: functional
[5] = Electrochemical behaviour of the compound assessed as peak potential; type: physicochemical
[6] = Electrochemical behaviour of the compound assessed as peak potential using disposable screen-printed carbon electrodes; type: physicochemical
[7] = Antioxidant activity assessed as alkoxyl radical scavenging activity by measuring rate constant by ESR spin trapping method; type: functional
[8] = Antioxidant activity assessed as effect on linolenic acid autooxidation in presence of 0.015 M SDS based micellar systems; type: functional
[9] = Antioxidant activity assessed as effect on linolenic acid autooxidation in presence of DLPC liposomes; type: functional
[10] = Antioxidant activity assessed as effect on linolenic acid autooxidation in presence of 0.5 M SDS based micellar systems; type: functional
[11] = Metal chelating activity assessed as equilibrium constant for formation of compound-Fe2+ complex formation
[12] = Metal chelating activity assessed as equilibrium constant for formation of compound-Al3+ complex formation
[13] = Metal chelating activity assessed as equilibrium constant for formation of compound-Cu2+ complex formation

SMILES	K [1] [×10⁷ /M/s]	K [2] [×10⁹ /M/s]	EC50 [3] [µmol]	K [4] [×10³ /M/s]	Ep [6] [mV]	K [7] [×10⁵ /M/s]	also measured
O=C(O)/C=C/c1ccc(O)c(O)c1 [CAFFEIC ACID]	54.7	8.06	0.0478	10.6	450	75.9	Ep [5]: 183 mV
COc1cc(C(=O)O)cc(OC)c1O [SYRINGIC ACID]			0.0427		490		
Oc1nc(O)c2nc(O)[nH]c2n1	2.3	9.52		10.6		106	
O=c1c(-c2ccc(O)cc2)coc2cc(O)cc(O)c12	19.1	11.8		2.75		20.7	
C[C@@H]1O[C@@H](OC[C@H]2O[C@@H](Oc3c(-c4ccc(O)c(O)c4)oc4cc(O)cc(O)c4c3=O)[C@H](O)[C@@H](O)[C@@H]2O)[C@H](O)[C@H](O)[C@H]1O	34.8	6.38		15.4		69	
O=C(O)c1cc(O)ccc1O [GENTISIC ACID]			0.0292				
O=C(O)/C=C/c1cc(O)c(O)c(O)c1							Ep [5]: 384 mV
O=C(O)/C=C/c1ccc(O)cc1 [COUMARIC ACID]			66.29		670		Ep [5]: 736 mV
COc1cc(/C=C/C(=O)O)ccc1O [FERULATE]			0.0927		447		Ep [5]: 335 mV
Cc1c(C)c2c(c(C)c1O)CCC(C)(C(=O)O)O2 (centres undefined)	6.22	24.8		2.1		48.3	K [8]: 1 ×10⁴ /M/s; K [9]: 0.58 ×10⁴ /M/s; K [10]: 110000 M⁻¹ s⁻¹
O=C(O)c1ccc(O)cc1 [PARABEN]			> 800		870		
O=C(O)c1cc(O)c(O)c(O)c1 [GALLIC ACID]			0.0237				Ep [5]: 110 to 544 mV
N[C@@H](CCC(=O)N[C@@H](CS)C(=O)NCC(=O)O)C(=O)O	93.9	16.4		1.11		27.6	
O=C(O)c1ccc(O)c(O)c1 [PROTOCATECHUIC ACID]			0.0574		410		Ep [5]: 188 to 317 mV
O=C(/C=C/c1ccc(O)c(O)c1)O[C@@H]1C[C@](O)(C(=O)O)C[C@@H](O)[C@H]1O	38.6	9.6		288		111	
CC(=O)N[C@@H](CS)C(=O)O	20.5	13.6		0.5		19.3	
COc1cc(C(=O)O)ccc1O [VANILLIC ACID]			14.37		730		
O=C(O)/C=C/c1ccccc1O [O-COUMARIC ACID]			130.05		750		
COc1cc(/C=C/C(=O)O)cc(OC)c1O [SINAPINATE]			0.0724				Ep [5]: 188 to 295 mV
O=C(O)CC(O)(CC(=O)O)C(=O)O							K [11]: 1600 M⁻¹; K [12]: 1000 to 100000 M⁻¹; K [13]: 1000 to 100000 M⁻¹
Cc1cc(C(C)(C)C)c(O)c(C(C)(C)C)c1							K [8]: 3.4 ×10⁴ /M/s; K [9]: 0.37 ×10⁴ /M/s; K [10]: 1.1 ×10⁴ /M/s
O=C(O)c1ccccc1O [SALICYLIC ACID]			> 800		940		
COc1cc(C(C)(C)C)c(O)c(C(C)(C)C)c1							K [8]: 2.5 ×10⁴ /M/s; K [9]: 2.75 ×10⁴ /M/s; K [10]: 1 ×10⁴ /M/s
O=C(O)/C=C/c1cccc(O)c1			> 300		780		
